Laboratory results taken from patent US8372840B2, “Potassium channel blockers” (Xention Limited, priority 2008, dated 2013).

Biological target: hKv1.5 (Homo sapiens, UniProt P22460)
Experiment: Kv1.5 Autopatch Electrophysiology (whole cell patch-clamp)
Assay type: cell-based
Details: compound 1 μM, step to 0 mV for 1000 ms, total charge, room temperature (22-24° C.)
Description: The external bathing solution contained (in mM): 150 NaCl, 10 KCl, […], 3 MgCl2, 1 CaCl2, 10 HEPES, pH 7.4. Patch pipettes were filled with an electrode solution of composition (in mM): 160 KCl, 0.5 MgCl2, 10 HEPES, 1 EGTA, pH 7.4 with KOH.
Compounds were dissolved in DMSO (100%) and made up in the external bather at a concentration of 1 μM. All experiments were conducted at room temperature (22-24° C.).
A cell suspension (10 ml), with a density of 100,000 cells/ml, was aliquoted into a 15 ml centrifuge tube and transferred to an incubator (37° C., 5% CO2) for approximately one hour before use. Following 60 min incubation, a tube was taken and centrifuged at 1000 rpm for 4 mins at room temperature. 9.5 ml supernatant was thence discarded, leaving a cell pellet at the bottom of the tube. The pellet was then resuspended using 100 μl of cold (4° C.), filtered (0.22 μm), 0.2% BSA/bather solution (0.02 g BSA/10 ml bather). The bottom of the tube was manually agitated gently until the solution became cloudy with cells. The 100 μl cell resuspension solution was then stored on the bench at 4° C. (using a Peltier-based temperature control device) until used.
A length of capillary glass (1B150E-4, WPI) was dipped into the cell suspension solution, such that ˜3 cm column of fluid was taken up by capillary action. A Ag/AgCl wire was dropped into the non-dipped end of the capillary also. The outside of the solution-filled end of the capillary was then dried and the capillary was loaded into the AutoPatch™
(§1) Borosilicate glass patch pipettes (from 1.5 mm OD, thin-walled filamented, GC150-TF capillary glass, Harvard) were pulled using a DMZ pipette puller (Zeitz Instruments), and were back-filled using the internal pipette solution, being careful that no bubbles remain at the tip or in the body of the pipette. Patch pipettes typically had resistances of 2.3-3.5 MΩ. Once filled, the pipette tip and a proportion of the shaft (˜15 mm) were dipped into Sigmacote (Sigma). The recording pipette was then loaded into the AutoPatch™. Automated patch-clamping was initiated by the operator, but thereafter AutoPatch.exe continued the experiment providing that pre-set conditions and criteria were satisfied.
Whole cell patch-clamp recordings were made using the AutoPatch™ rig, which incorporated an EPC9 amplifier (HEKA, Germany) under control of Pulse software (v8.54, HEKA, Germany), a motion controller with 2 translators (Newport, UK), valve controller (VF1) and a c-level suction device all at room temperature (22-24° C.). This equipment was completely under the control of AutoPatch.exe and operator intervention was only made when there was a requirement to refill the drug reservoirs or to prevent the loss of a cell due to a technical error. Cells with an Rseries greater than 18 MΩ were discounted from the experiment.
Qualification stages prior to perfusion and drug application ensured that the observed current met the criteria for the experiment. Only those cells with an IK>500 pA were used for experiments. Cells were continuously perfused with external solution at a flow rate of 1.8-2 ml/minute. […] Online analysis of the hKv1.5 current during the application of compounds was performed by the AutoPatch™ software. Voltage-step protocols and analysis of data was performed as described for conventional electrophysiology.
Electrophysiology voltage-step protocols and analysis of data was performed as follows. Data was sampled at 5 kHz, and filtered with a −3 dB bandwidth of 2.5 kHz. Cells were held at a voltage of −80 mV. Currents were evoked to a voltage step for 1000 ms in duration at 0 mV every 5 s. Currents were analysed using Pulsefit software (v8.54, HEKA, Germany), with the total charge measured during the whole of the voltage step. All other plots were produced using Igor Pro (WaveMetrics).

Chain of hKv1.5 (P22460 whole entry): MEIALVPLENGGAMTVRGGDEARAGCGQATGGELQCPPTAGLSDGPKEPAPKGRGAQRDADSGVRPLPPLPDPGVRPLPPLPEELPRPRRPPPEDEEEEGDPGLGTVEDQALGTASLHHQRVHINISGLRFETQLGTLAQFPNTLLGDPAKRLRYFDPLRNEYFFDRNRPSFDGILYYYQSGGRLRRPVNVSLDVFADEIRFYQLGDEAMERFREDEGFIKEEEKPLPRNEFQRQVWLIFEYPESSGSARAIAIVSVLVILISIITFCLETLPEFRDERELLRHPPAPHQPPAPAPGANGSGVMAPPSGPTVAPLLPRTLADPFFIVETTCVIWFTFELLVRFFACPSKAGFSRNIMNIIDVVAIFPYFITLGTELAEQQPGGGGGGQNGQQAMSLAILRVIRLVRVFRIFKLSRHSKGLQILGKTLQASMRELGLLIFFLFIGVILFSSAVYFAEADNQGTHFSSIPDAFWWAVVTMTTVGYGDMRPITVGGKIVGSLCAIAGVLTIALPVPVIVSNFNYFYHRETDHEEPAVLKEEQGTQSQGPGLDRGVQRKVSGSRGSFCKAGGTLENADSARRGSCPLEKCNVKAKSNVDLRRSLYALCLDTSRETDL

Compound	hKv1.5 % inh.
1-Methyl-1H-pyrazole-4-sulfonic acid benzyl-[3-(2-oxo-pyrrolidin-1-yl)-phenyl]-amide [Example 24]	41%
2-Methyl-2H-pyrazole-3-sulfonic acid (4-chloro-benzyl)-[3-(2-oxo-pyrrolidin-1-yl)-phenyl]-amide [Example 26]	43%
3-Oxo-3,4-dihydro-2H-benzo[1,4]oxazine-6-sulfonic acid (4-chloro-benzyl)-[3-(2-oxo-pyrrolidin-1-yl)-phenyl]-amide [Example 29]	72%
N-(4-Chloro-benzyl)-3-cyano-N-(3-morpholin-4-yl-phenyl)-benzenesulfonamide [Example 30]	97%
N-Benzyl-3-cyano-N-[3-(2-oxo-pyrrolidin-1-yl)-phenyl]-benzenesulfonamide [Example 22]	82%
Pyridine-3-sulfonic acid (4-chloro-benzyl)-(3-morpholin-4-yl-phenyl)-amide [Example 35]	84%

Same assay, conditions: compound 1 μM, step to 0 mV for 1000 ms, total charge, room temperature (22-24° C.), read-out: hKv1.5 % inh.

Compound	inhibition at 1 µM
O=C1COc2ccc(S(=O)(=O)N(Cc3ccccc3)c3cccc(N4CCCC4=O)c3)cc2N1 [Example 17, 3-Oxo-3,4-dihydro-2H-benzo[1,4]oxazine-6-sulfonic acid benzyl-[3-(2-oxo-pyrrolidin-1-yl)-phenyl]-amide]	45%
N#Cc1cccc(S(=O)(=O)N(Cc2ccccc2)c2cccc(N3CCOCC3)c2)c1 [Example 20, N-Benzyl-3-cyano-N-(3-morpholin-4-yl-phenyl)-benzenesulfonamide]	90%
CN1CCOc2cc(S(=O)(=O)N(Cc3ccccc3)c3cccc(N4CCOCC4)c3)ccc21 [Example 21, 4-Methyl-3,4-dihydro-2H-benzo[1,4]oxazine-7-sulfonic acid benzyl-(3-morpholin-4-yl-phenyl)-amide]	72%
Cc1nc(S(=O)(=O)N(Cc2ccc(Cl)cc2)c2cccc(N3CCCC3=O)c2)cn1C [Example 25, 1,2-Dimethyl-1H-imidazole-4-sulfonic acid (4-chloro-benzyl)-[3-(2-oxo-pyrrolidin-1-yl)-phenyl]-amide]	39%
CN1CCOc2cc(S(=O)(=O)N(Cc3ccc(Cl)cc3)c3cccc(N4CCCC4=O)c3)ccc21 [Example 27, 4-Methyl-3,4-dihydro-2H-benzo[1,4]oxazine-7-sulfonic acid (4-chloro-benzyl)-[3-(2-oxo-pyrrolidin-1-yl)-phenyl]-amide]	84%
Cn1cc(S(=O)(=O)N(Cc2ccc(Cl)cc2)c2cccc(N3CCCC3=O)c2)cn1 [Example 28, 1-Methyl-1H-pyrazole-4-sulfonic acid (4-chloro-benzyl)-[3-(2-oxo-pyrrolidin-1-yl)-phenyl]-amide]	49%
Cn1nccc1S(=O)(=O)N(Cc1ccc(Cl)cc1)c1cccc(N2CCOCC2)c1 [Example 31, 2-Methyl-2H-pyrazole-3-sulfonic acid (4-chloro-benzyl)-(3-morpholin-4-yl-phenyl)-amide]	47%
CN1CCOc2cc(S(=O)(=O)N(Cc3ccc(Cl)cc3)c3cccc(N4CCOCC4)c3)ccc21 [Example 32, 4-Methyl-3,4-dihydro-2H-benzo[1,4]oxazine-7-sulfonic acid (4-chloro-benzyl)-(3-morpholin-4-yl-phenyl)-amide]	64%
Cn1cc(S(=O)(=O)N(Cc2ccc(Cl)cc2)c2cccc(N3CCOCC3)c2)cn1 [Example 33, 1-Methyl-1H-pyrazole-4-sulfonic acid (4-chloro-benzyl)-(3-morpholin-4-yl-phenyl)-amide]	58%
O=C1COc2ccc(S(=O)(=O)N(Cc3ccc(Cl)cc3)c3cccc(N4CCOCC4)c3)cc2N1 [Example 34, 3-Oxo-3,4-dihydro-2H-benzo[1,4]oxazine-6-sulfonic acid (4-chloro-benzyl)-(3-morpholin-4-yl-phenyl)-amide]	68%

Biological target: T1, human Kv1.3 (Homo sapiens, UniProt P22001)
T1 construct: expressed in transfected cells; host or cells: stably transfected cells grown in medium for CHO cells
T1 sequence (P22001 whole entry): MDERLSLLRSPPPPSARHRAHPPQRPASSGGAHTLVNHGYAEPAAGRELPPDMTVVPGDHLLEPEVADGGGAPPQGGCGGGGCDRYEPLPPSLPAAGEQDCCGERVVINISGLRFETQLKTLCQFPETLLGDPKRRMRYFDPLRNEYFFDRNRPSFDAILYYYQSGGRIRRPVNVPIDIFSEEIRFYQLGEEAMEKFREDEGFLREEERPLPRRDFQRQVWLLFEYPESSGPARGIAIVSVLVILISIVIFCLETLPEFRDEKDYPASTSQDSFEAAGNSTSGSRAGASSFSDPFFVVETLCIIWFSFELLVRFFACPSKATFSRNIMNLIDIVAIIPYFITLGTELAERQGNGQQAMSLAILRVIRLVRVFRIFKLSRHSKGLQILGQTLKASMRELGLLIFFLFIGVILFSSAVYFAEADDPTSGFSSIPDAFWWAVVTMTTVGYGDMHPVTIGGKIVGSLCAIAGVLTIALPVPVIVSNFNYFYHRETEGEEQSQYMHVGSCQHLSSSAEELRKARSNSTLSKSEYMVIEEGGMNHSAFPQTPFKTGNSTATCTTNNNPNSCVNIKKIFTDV
Experiment: Kv1.3 Autopatch Electrophysiology (whole cell patch-clamp, stably transfected CHO cells)
Assay type: cell-based
Details: CHO, compound 1 μM, step to +30 mV for 500 ms, inhibition of total charge relative to control, room temperature, read-out: hKv1.3 % inh.
Description: Cells stably transfected with cDNA for human Kv1.3 (in pcDNA3.1) were grown in Ex-cell 302 serum-free medium for CHO cells, supplemented with 10 μl/ml [100×] glutamine, 500 μg/ml G418 ([…]), and 1% HT supplement (50×, hypoxanthine and thymidine). Compounds were tested on these cells using the AutoPatch technology in whole cell mode.
The external bathing solution contained (in mM): 150 NaCl, 10 KCl, 1 MgCl2, 3 CaCl2, 10 HEPES, pH 7.4 with NaOH. Patch pipettes were filled with an electrode solution of composition (in mM): 100 K-Gluconate, 20 KCl, 1 MgCl2, 1 CaCl2, 10 HEPES, 11 EGTA, 5 ATP-Na2, 2 Glutathione pH 7.2 with KOH.
Compounds were dissolved in DMSO (100%) and made up in the external bather at a concentration of 1 μM immediately prior to use. All experiments were conducted at room temperature.
A cell suspension (10 ml), with a density of 6×10^6 cells, was aliquoted into a 15 ml centrifuge tube and stored at 4° C. before use. Prior to use a tube was taken and centrifuged at 1000 rpm for 4 mins at room temperature. The supernatant was then discarded, leaving a cell pellet at the bottom of the tube. The pellet was then resuspended using 1 ml of cold (4° C.), filtered (0.22 μm), 0.05% BSA/bather solution (0.05 g BSA/100 ml bather). The bottom of the tube was manually agitated followed by gentle tituration. The cell suspension was then placed in the AutoPatch™ temperature controlled cell-hotel at 14° C. and regularly titurated.
as §1, with “A length of Teflon capillary tubing was dipped into the cell suspension solution, and a column of fluid was taken up by negative pressure. The column of fluid was in electrically connectivity with a Ag/AgCl reference electrode. Borosilicate” for “Borosilicate”, “remained” for “remain”, “2.5-3.5” for “2.3-3.5”, “pipettes were placed in a multiwell array and mounted on” for “pipette was then loaded into”, “AutoPatch™ machine.” for “AutoPatch™.”, “patch-clamping and drug-application” for “patch-clamping”
Whole cell patch-clamp recordings were made using the AutoPatch™ rig, which incorporated an EPC9 or EPC10 amplifier (HEKA, Germany) under control of Pulse software (v8.54 or v8.76, HEKA, Germany), a cell applicator, automated drug application system (DAS), valve controller (VF1) and a suction device all at room temperature. This equipment was completely under the control of AutoPatch.exe and operator intervention was only made when there was a requirement to refill the bather reservoirs or to prevent the loss of a cell due to a technical error.
Qualification stages prior to perfusion and drug application ensured that the observed current met the criteria for the experiment. Cells were continuously perfused with external solution at a flow rate of ˜2 ml/minute.
Electrophysiology voltage-step protocols and analysis of data was performed as follows. Data were sampled at 5 kHz, and filtered with a −3 dB bandwidth of 2.5 kHz. Cells were held at a voltage of −80 mV. Currents were evoked by a voltage step to +30 mV for 500 ms in duration applied every 15 s. Online analysis of the hKv1.3 current during the application of compounds was performed by the Pulse (v8.54 or v8.76, HEKA, Germany), Excel (Microsoft, USA) and AutoPatch™ software, with the total charge measured during the whole of voltage step Inhibition of charge movement in the presence of drug was calculated relative to control.

Compound	inhibition at 1 µM
Cn1cnc(S(=O)(=O)N(Cc2ccc(Cl)cc2)c2ccc(F)c(N3CCCC3=O)c2)c1 [Example 4, 1-Methyl-1H-imidazole-4-sulfonic acid (4-chloro-benzyl)-[4-fluoro-3-(2-oxo-pyrrolidin-1-yl)-phenyl]-amide]	61%

Same assay, conditions: compound 1 μM, step to +30 mV for 500 ms, inhibition of total charge relative to control, room temperature

Compound	hKv1.3 % inh.
1-Methyl-1H-imidazole-4-sulfonic acid benzyl-[3-(4-phenyl-piperazin-1-yl)-phenyl]-amide [Example 13]	41%
1-Methyl-1H-pyrazole-3-sulfonic acid (4-chloro-benzyl)-[4-fluoro-3-(2-oxo-pyrrolidin-1-yl)-phenyl]-amide [Example 37]	53%
1-Methyl-1H-pyrazole-3-sulfonic acid benzyl-[3-(2-oxo-pyrrolidin-1-yl)-phenyl]-amide [Example 39]	74%
